From PubChem BioAssay AID248 (DTP/NCI, 2004)
Values joined by “and” are separate entries in the source; they are usually repeats but may differ in a detail not shown here. Equal values may be shown once. Inconclusive results and toxic doses are left out. Rule as the data show it: active = T/C of 150% or more; inactive = T/C below 125%.

System: L1210 leukemia ip in BDF1 mice, survival T/C
Test: NCI In Vivo Anticancer Drug Screen. Data for tumor model L1210 Leukemia (intraperitoneal) in B6D2F1 (BDF1) mice
Conditions: endpoint: mean survival time, higher = longer survival
In short: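 Read-out is survival time, reported as the treated-group measurement over the vehicle-control measurement.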

[1] = dose: 100.0 mg/kg/injection, schedule: Q04DX003 (ip), vehicle: saline with Tween-80
[2] = dose: 200.0 mg/kg/injection, schedule: Q04DX003 (ip), vehicle: saline with Tween-80
[3] = dose: 400.0 mg/kg/injection, schedule: Q04DX003 (ip), vehicle: saline with Tween-80
[4] = dose: 50.0 mg/kg/injection, schedule: Q01DX001 (ip), vehicle: carboxymethylcellulose (CMC)
[5] = dose: 100.0 mg/kg/injection, schedule: Q01DX001 (ip), vehicle: carboxymethylcellulose (CMC)
[6] = dose: 100.0 mg/kg/injection, schedule: Q04DX002 (ip), vehicle: saline with Tween-80
[7] = dose: 200.0 mg/kg/injection, schedule: Q01DX001 (ip), vehicle: carboxymethylcellulose (CMC)
[8] = dose: 400.0 mg/kg/injection, schedule: Q01DX001 (ip), vehicle: carboxymethylcellulose (CMC)
[9] = dose: 100.0 mg/kg/injection, schedule: Q01DX001 (ip), vehicle: saline with Tween-80
[10] = dose: 200.0 mg/kg/injection, schedule: Q01DX001 (ip), vehicle: saline with Tween-80
[11] = dose: 50.0 mg/kg/injection, schedule: Q01DX009 (ip), vehicle: saline with Tween-80
[12] = dose: 100.0 mg/kg/injection, schedule: Q01DX009 (ip), vehicle: saline with Tween-80
[13] = dose: 200.0 mg/kg/injection, schedule: Q01DX009 (ip), vehicle: saline with Tween-80
[14] = dose: 100.0 mg/kg/injection, schedule: Q04DX003 (ip), vehicle: Klucel (hydroxypropylcellulose) (HPC)

Measured: T/C

Cc1cc2c(cc1C)N(C(=O)CN1CCSCC1)CC(=O)N2
inactive: dose: 75.0 mg/kg/injection, schedule: Q01DX001 (ip), vehicle: saline 107 % of control | dose: 75.0 mg/kg/injection, schedule: Q04DX003 (ip), vehicle: saline 93 % of control | dose: 150.0 mg/kg/injection, schedule: Q01DX001 (ip), vehicle: saline 98 % of control | dose: 150.0 mg/kg/injection, schedule: Q04DX003 (ip), vehicle: saline 94 % of control | dose: 300.0 mg/kg/injection, schedule: Q01DX001 (ip), vehicle: saline 109 % of control | dose: 300.0 mg/kg/injection, schedule: Q04DX003 (ip), vehicle: saline 91 % of control

Cc1ccc(C(=O)CCC(=O)O)cc1
inactive: [1] 102 % of control | [2] 98 % of control | [3] 94 % of control

COc1ccc(Nc2ccnc3cc(Cl)ccc23)cc1CN(CCCl)C(C)CCl (configuration not stated)
inactive: dose: 25.0 mg/kg/injection, schedule: Q01DX001 (ip), vehicle: carboxymethylcellulose (CMC) 113 % of control | [4] 107 % of control | [5] 103 % of control

O=C(O)CNC(=O)c1cccc(Cl)c1
inactive: [6] 95 % of control | dose: 200.0 mg/kg/injection, schedule: Q04DX002 (ip), vehicle: saline with Tween-80 95 % of control | dose: 400.0 mg/kg/injection, schedule: Q04DX002 (ip), vehicle: saline with Tween-80 95 % of control

O=C1C(Cl)=C(Nc2ccc(Cl)cc2)C(=O)c2ccccc21
inactive: [4] 95 % of control | [5] 89 % of control | [7] 98 % of control | [8] 93 % of control

CCOC(=O)CC1(C)OCC(c2ccccc2)O1 (configuration not stated)
inactive: dose: 222.0 mg/kg/injection, schedule: Q01DX Z (ip), vehicle: saline 106 % of control | dose: 333.0 mg/kg/injection, schedule: Q01DX Z (ip), vehicle: saline 86 % of control | dose: 500.0 mg/kg/injection, schedule: Q01DX Z (ip), vehicle: saline 91 % of control

COC1=C(N=[N+]=[N-])C(=O)C(OC)=C(N=[N+]=[N-])C1=O
inactive: dose: 2.0 mg/kg/injection, schedule: Q01DX009 (ip), vehicle: carboxymethylcellulose (CMC) 93 % of control | dose: 2.5 mg/kg/injection, schedule: Q01DX001 (ip), vehicle: carboxymethylcellulose (CMC) 95 % of control | dose: 4.0 mg/kg/injection, schedule: Q01DX009 (ip), vehicle: carboxymethylcellulose (CMC) 98 % of control | dose: 5.0 mg/kg/injection, schedule: Q01DX001 (ip), vehicle: carboxymethylcellulose (CMC) 91 % of control | dose: 5.0 mg/kg/injection, schedule: Q04DX003 (ip), vehicle: carboxymethylcellulose (CMC) 93 % of control | dose: 8.0 mg/kg/injection, schedule: Q01DX009 (ip), vehicle: carboxymethylcellulose (CMC) 104 % of control | dose: 10.0 mg/kg/injection, schedule: Q01DX001 (ip), vehicle: carboxymethylcellulose (CMC) 95 % of control and 100 % of control | dose: 10.0 mg/kg/injection, schedule: Q04DX003 (ip), vehicle: carboxymethylcellulose (CMC) 110 % of control | dose: 20.0 mg/kg/injection, schedule: Q01DX001 (ip), vehicle: carboxymethylcellulose (CMC) 98 % of control | dose: 20.0 mg/kg/injection, schedule: Q04DX003 (ip), vehicle: carboxymethylcellulose (CMC) 90 % of control | dose: 30.0 mg/kg/injection, schedule: Q04DX003 (ip), vehicle: saline with Tween-80 93 % of control | dose: 36.25 mg/kg/injection, schedule: Q01DX009 (ip), vehicle: saline 114 % of control | dose: 45.0 mg/kg/injection, schedule: Q04DX003 (ip), vehicle: saline with Tween-80 104 % of control | dose: 65.0 mg/kg/injection, schedule: Q04DX003 (ip), vehicle: saline with Tween-80 100 % of control | dose: 72.5 mg/kg/injection, schedule: Q01DX009 (ip), vehicle: saline 100 % of control | dose: 95.0 mg/kg/injection, schedule: Q04DX003 (ip), vehicle: saline 94 % of control | dose: 145.0 mg/kg/injection, schedule: Q01DX009 (ip), vehicle: saline 86 % of control | dose: 145.0 mg/kg/injection, schedule: Q04DX003 (ip), vehicle: saline 92 % of control

COc1ccc(-c2sc(/N=C/c3cc(Br)cc(Br)c3O)c(C#N)c2C)cc1OC
inactive: [9] 89 % of control | [1] 93 % of control | [10] 91 % of control | [2] 98 % of control and 90 % of control | [3] 90 % of control

OCCCOc1ccccc1
inactive: [9] 103 % of control | [10] 97 % of control | dose: 400.0 mg/kg/injection, schedule: Q01DX001 (ip), vehicle: saline with Tween-80 100 % of control

CC1=C(C)C2(C)C(C)(O)C(C)(O)C12C (configuration not stated)
inactive: dose: 75.0 mg/kg/injection, schedule: Q01DX001 (ip), vehicle: acetone 97 % of control | dose: 75.0 mg/kg/injection, schedule: Q04DX003 (ip), vehicle: saline with Tween-80 87 % of control | dose: 150.0 mg/kg/injection, schedule: Q01DX001 (ip), vehicle: acetone 102 % of control | dose: 300.0 mg/kg/injection, schedule: Q01DX001 (ip), vehicle: acetone 102 % of control

Cc1ccc2c(c1)NP(=O)(c1ccccc1)S2 (configuration not stated)
inactive: dose: 25.0 mg/kg/injection, schedule: Q04DX002 (ip), vehicle: saline with Tween-80 89 % of control | dose: 50.0 mg/kg/injection, schedule: Q04DX002 (ip), vehicle: saline with Tween-80 92 % of control | [6] 102 % of control and 89 % of control

Cc1cc(C)c(C(=O)O)cc1C(=O)O
inactive: [11] 100 % of control | [12] 100 % of control | [13] 106 % of control

C/C=C/CNc1ccc(C)cc1
inactive: dose: 25.0 mg/kg/injection, schedule: Q01DX009 (ip), vehicle: saline with Tween-80 102 % of control | dose: 25.0 mg/kg/injection, schedule: Q04DX003 (ip), vehicle: saline with Tween-80 97 % of control | [11] 97 % of control | dose: 50.0 mg/kg/injection, schedule: Q04DX003 (ip), vehicle: saline with Tween-80 90 % of control | [1] 101 % of control

NC1=NC(c2ccccc2)C2=C(N1)C(=O)N(Cc1ccccc1)C2 (configuration not stated)
inactive: [4] 98 % of control | [5] 101 % of control | [7] 98 % of control | [8] 95 % of control

O=C1C(Cl)=C(Cl)C(=O)C2=C1C1c3ccccc3C2c2ccccc21
inactive: [14] 86 % of control | dose: 200.0 mg/kg/injection, schedule: Q04DX003 (ip), vehicle: Klucel (hydroxypropylcellulose) (HPC) 94 % of control | dose: 400.0 mg/kg/injection, schedule: Q04DX003 (ip), vehicle: Klucel (hydroxypropylcellulose) (HPC) 89 % of control

CCCCn1c(C)cc2c(c1=O)COC(=O)C2(O)CC (configuration not stated)
inactive: dose: 2.5 mg/kg/injection, schedule: Q04DX003 (ip), vehicle: saline 101 % of control | dose: 5.0 mg/kg/injection, schedule: Q04DX003 (ip), vehicle: saline 98 % of control | dose: 10.0 mg/kg/injection, schedule: Q04DX003 (ip), vehicle: saline 100 % of control | dose: 20.0 mg/kg/injection, schedule: Q04DX003 (ip), vehicle: saline 96 % of control | dose: 40.0 mg/kg/injection, schedule: Q04DX003 (ip), vehicle: saline 94 % of control

O=C/C=C\C=C/Nc1ccc([N+](=O)[O-])cc1[N+](=O)[O-]
inactive: dose: 100.0 mg/kg/injection, schedule: Q04DX002 (ip), vehicle: DMSO 94 % of control | dose: 200.0 mg/kg/injection, schedule: Q04DX002 (ip), vehicle: DMSO 98 % of control | dose: 400.0 mg/kg/injection, schedule: Q04DX002 (ip), vehicle: DMSO 102 % of control

C/C(=N\[N+](C)(C)C)c1ccc2ccccc2c1
inactive: dose: 25.0 mg/kg/injection, schedule: Q01DX009 (ip), vehicle: Klucel (hydroxypropylcellulose) (HPC) 101 % of control | dose: 25.0 mg/kg/injection, schedule: Q04DX003 (ip), vehicle: Klucel (hydroxypropylcellulose) (HPC) 101 % of control | dose: 50.0 mg/kg/injection, schedule: Q01DX009 (ip), vehicle: Klucel (hydroxypropylcellulose) (HPC) 100 % of control | dose: 50.0 mg/kg/injection, schedule: Q04DX003 (ip), vehicle: Klucel (hydroxypropylcellulose) (HPC) 105 % of control | dose: 100.0 mg/kg/injection, schedule: Q01DX009 (ip), vehicle: Klucel (hydroxypropylcellulose) (HPC) 90 % of control | [14] 95 % of control and 105 % of control

COC1(c2cccs2)OC1(C)C (configuration not stated)
inactive: [12] 110 % of control | [13] 94 % of control | dose: 400.0 mg/kg/injection, schedule: Q01DX009 (ip), vehicle: saline with Tween-80 100 % of control
